Test results from PMC11464777, “Approved drugs successfully repurposed against Leishmania based on machine learning predictions” (Frontiers in Cellular and Infection Microbiology, 2024).
≈ marks a conversion by molar mass, not a printed value. Read-outs that look alike come from different tables or passages of the source.

Experiments:
[1] = test system: L. infantum (LV50 and Drep-14) and L. major (Empa-12) promastigotes; assay: MTT promastigote viability assay, stated across the three strains; assay type: cell-based, Leishmania infantum, Leishmania major; conditions: 72 h; for Effect on promastigote viability: three strains, at the tested concentrations; for IC50: Leishmania infantum, LV50, Drep-14, Empa-12, MTT, read-out: Promastigotes IC50, span over the three strains
Text: (§1) Three Tunisian laboratory strains already described ([Oualha et al., 2019]), originally isolated from distinct clinical manifestations were used in this study: (i) L. infantum LV50 MHOM/TN/94/LV50) strain originating from a bone marrow of a visceral leishmaniasis patient, (ii) L. infantum Drep-14 (MHOM/TN/96/Drep-14) strain isolated from a lesion of a sporadic cutaneous leishmaniasis patient and (iii) L. major Empa-12 (MHOM/TN/2012/Empa-12) strain isolated from a zoonotic cutaneous leishmaniasis patient. Stocks of these parasites obtained after passage through BALB/c mice were used as previously described ([Oualha et al., 2019]). Thawed cryopreserved parasites were cultured at 22°C in RPMI-1640/Glutamax medium (Gibco BRL, Germany) containing penicillin (100 U/mL) and streptomycin (100 μg/mL) supplemented with 10% heat-inactivated Fetal Bovine Serum (FBS) (Gibco BRL, Germany).
(§2) The effect of the selected compounds on the viability of Leishmania promastigotes was evaluated by a colorimetric MTT (3-(4,5-dimethylthiazol-2yl)-2,5-diphenyl tetrazolium bromide) assay. It consists in the reduction of tetrazolium salt to a […] crystal (blue formazan) by the succinate dehydrogenase activity of mitochondria in living cells, which can be quantified by spectrophotometry. Briefly, 90 μL of promastigotes (5 × 10^5 parasites/well) harvested from the stationary growth phase of each strain were added to a 96-well culture plate and incubated with 10 μL of a range of serial dilutions of the selected compounds in technical replicates (final concentration of 1% DMSO per well) ([Ioset et al., 2009]; [Harigua-Souiai et al., 2018]). […] After 72h of incubation at 22°C, 25 μl of MTT solution (5 mg/mL) was added to each well and incubated at 22°C for 4h. Then, 150 μl of DMSO was added to each well to dissolve the blue formazan and the optical density (OD) was measured at 570 nm with a microplate reader ([…], Labsystems). Promastigotes incubated in complete medium containing 1% DMSO were used as negative control. The standard anti-Leishmania drug, Amphotericin B was used as a positive control. All experiments were performed in two technical replicates and repeated three times in independent experiments. The mean percentage of promastigotes viability was calculated from the Optical Density at 570 nm as follows:
(§3) Promastigote viability (%)= [(ODcompound− ODblank)/(ODnegative control −ODblank)]*100
(§4) Results were expressed as the mean value of the percentage of promastigotes viability ± standard deviation (SD).

[2] = test system: L. infantum Drep-14 intracellular amastigotes; assay: Anti-amastigote assay in THP-1-derived macrophages, L. infantum Drep-14; assay type: cell-based, Leishmania infantum; conditions: for Selectivity Index (SI): CC50 THP-1 / IC50 amastigotes Drep-14, 72 h; for IC50: Leishmania infantum, Macrophage, Drep-14, intramacrophage, 72 h
Experimental: (§5) THP-1-derived macrophages (5 × 10^4/well) were seeded in each 8-well Labtek slides (Thermo Scientific). Adherent macrophages were obtained as described above, then infected with stationary phase promastigotes of each strain at a ratio 10:1 (10 parasites/macrophage) in RPMI medium containing penicillin (100 U/mL) and streptomycin (100 μg/mL) with 10% fetal bovine serum (Gibco, Brazil) at 37°C in 5% CO2 for 24 h. […] Non-infected control cells were incubated in a supplemented RPMI medium containing 1% DMSO. After 72h of incubation, cells were fixed and stained using May-Grunwald-Giemsa staining with RAL 555 Kit (RAL DIAGNOSTICS, France), following the manufacturer’s instructions. The percentage of infected cells and the total number of internalized parasites per 100 macrophages were determined under immersion oil (magnification of 1000X) using light microscopy. The percentage of amastigotes viability was expressed as the percentage of total number of internalized parasites within treated cells relative to the total number of internalized parasites within control cells treated with 1% DMSO, and calculated as follows:
(§6) Relative amastigote viability (%) = [(number of amastigotes/100 treated cells)/(number of amastigotes/100 treated cells with1% DMSO)] * 100
(§7) The relative percentage of amastigote viability was evaluated to calculate half inhibitory concentrations (IC50). The mean IC50 values were determined by plotting the curves of the logarithm of compound concentrations versus the relative amastigote viability of three independent experiments performed in two technical replicates for each compound fitted into a nonlinear regression model, using GraphPad Prism version 8.0.1. Selectivity Index (SI) values were calculated as the ratio between cytotoxicity and activity against amastigotes and determined for each compound as follows: SI= CC50/IC50.

[3] = Cytotoxicity assay towards THP-1-derived macrophages (MTT); assay type: cell-based, human; conditions: human, THP-1-derived macrophages (PMA-differentiated); for CC50 at 72 h: 72 h of treatment, uninfected cells, MTT; for viability at 72 h, 200 µg/mL: at 200 µg/mL
Experimental: (§8) Louis, MO, USA). The PMA-treated THP-1 cells were maintained in this condition for 24 h, followed by a 24 h of rest period after the removal of PMA. […] The cytotoxicity towards THP-1-derived macrophages was assessed after 24, 48 and 72 hours of incubation by MTT assay as described above. […] The percentage of viable cells was calculated from the Optical Density at 570 nm as follows: […]

[4] = test system: THP-1-derived macrophages; assay: as above; assay type: cell-based, human; conditions: for Cytotoxicity on THP-1-derived macrophages: 24, 48, 72 h
Experimental: as §8

[5] = test system: L. major Empa-12 promastigotes; assay: MTT-based promastigote viability assay, L. major Empa-12; assay type: cell-based; conditions: Leishmania major
Text: as §1, §2, §3, §4

[6] = test system: L. major and L. infantum amastigotes; assay: Anti-amastigote assay, stated across the three strains; assay type: cell-based, Leishmania infantum, Leishmania major
Experimental: as §5, §6, §7

[7] = test system: L. infantum Drep-14 promastigotes; assay: microbe, parasite or virus in culture; assay type: cell-based; conditions: Leishmania infantum
Text: as §1, §2, §3, §4

[8] = test system: L. major Empa-12 intracellular amastigotes; assay: Anti-amastigote assay in THP-1-derived macrophages, L. major Empa-12; assay type: cell-based, Leishmania major; conditions: for Selectivity Index (SI): CC50 THP-1 / IC50 amastigotes Empa-12, 72 h; for IC50: Leishmania major, Macrophage, Empa-12, intramacrophage, 72 h
Experimental: as §5, §6, §7

[9] = test system: L. infantum LV50 intracellular amastigotes; assay: Anti-amastigote assay in THP-1-derived macrophages, L. infantum LV50; assay type: cell-based, Leishmania infantum; conditions: for Selectivity Index (SI): CC50 THP-1 / IC50 amastigotes LV50, 72 h; for IC50: Leishmania infantum, Macrophage, LV50, intramacrophage, 72 h
Experimental: as §5, §6, §7

[10] = test system: L. infantum LV50 promastigotes; assay: MTT-based promastigote viability assay, L. infantum LV50; assay type: cell-based; conditions: Leishmania infantum
Text: as §1, §2, §3, §4

[11] = read-out: Amastigotes IC50 (in brackets) (converted)
[12] = read-out: THP-1-derived macrophages CC50
[13] = read-out: THP-1-derived macrophages CC50 (in brackets) (converted)
[14] = Empa-12, 72 h, MTT, read-out: Promastigotes IC50
[15] = Empa-12, 72 h, MTT, read-out: Promastigotes IC50 (in brackets) (converted)
[16] = 72 h, read-out: Promastigotes IC50
[17] = 72 h, read-out: Promastigotes IC50 (in brackets)
[18] = LV50, 72 h, MTT, read-out: Promastigotes IC50
[19] = LV50, 72 h, MTT, read-out: Promastigotes IC50 (in brackets) (converted)

Structure (SMILES) | Effect on promastigote viability [1] | Selectivity Index (SI) [2] | IC50 ([2]; read-out: Amastigotes IC50) [µg/mL] | IC50 [2, 11] [µM] | CC50 at 72 h [3, 12] [µg/mL] | CC50 at 72 h [3, 13] [µM] | Cytotoxicity on THP-1-derived macrophages [4] | IC50 [5, 14] [µg/mL] | IC50 [5, 15] [µM] | IC50 [7, 16] [µg/mL] | IC50 [7, 17] [µM] | Selectivity Index (SI) [8] | IC50 ([8]; read-out: Amastigotes IC50) [µg/mL] | IC50 [8, 11] [µM] | IC50 [1] [µg/mL] | Selectivity Index (SI) [9] | IC50 ([9]; read-out: Amastigotes IC50) [µg/mL] | IC50 [9, 11] [µM] | IC50 [10, 18] [µg/mL] | IC50 [10, 19] [µM] | also measured
C=C(CC)C(=O)c1ccc(OCC(=O)O)c(Cl)c1Cl [Ethacrynic acid] | no effectiveness |  |  |  |  |  |  |  |  |  |  |  |  |  |  |  |  |  |  |  | 
CCCNC(C)C(=O)Nc1ccccc1C (stereo not shown) [Prilocaine] | dose-dependent decrease of parasite viability | > 13.14 | 30.4 ± 2.3 | 138 | > 200 | > 1820 | no significant cytotoxicity | 33.1 ± 2.3 | 150 | 34.8 ± 3.22 | 158 | > 13.02 | 30.7 ± 2.2 | 139 | 33.1 to 45.8 (≈ 150 to 208 µM) | > 15.25 | 26.2 ± 3.14 | 119 | 45.8 ± 2.46 | 208 | viability at 72 h, 200 µg/mL ([3]; read-out: Macrophage viability): 90 to 100%; viability ([3]; at the IC50 value on the promastigotes, read-out: Macrophage viability): 90 to 100%; Concentration at which cytotoxic effects start ([4]; 72 h of incubation): 400 µg/mL; IC50 ([6]; 72 h, LV50, Drep-14, Empa-12; intramacrophage, 72 h; read-out: Amastigotes IC50, span over the three strains): 13.8 to 66.8 µg/mL (≈ 62.8 to 303 µM)
Nc1nc(O)c2ncn(COC(CO)CO)c2n1 [Ganciclovir] | no effectiveness |  |  |  |  |  |  |  |  |  |  |  |  |  |  |  |  |  |  |  | 
C[C@@H]1[C@H](O)[C@@H](C)/C=C/C=C/C=C/C=C/C=C/C=C/C=C/[C@H](O[C@@H]2O[C@H](C)[C@@H](O)[C@H](N)[C@@H]2O)C[C@@H]2O[C@](O)(C[C@@H](O)C[C@@H](O)[C@H](O)CC[C@@H](O)C[C@@H](O)CC(=O)O[C@H]1C)C[C@H](O)[C@H]2C(=O)O [Amphotericin B] |  | > 125.00 | 0.04 ± 0.006 | 0.043 | > 5 | > 5.41 | no cytotoxic effect | 0.2 ± 0.01 | 0.22 | 0.2 ± 0.004 | 0.22 | > 100.00 | 0.05 ± 0.005 | 0.054 | 0.15 to 0.2 (≈ 0.162 to 0.216 µM) | > 166.66 | 0.03 ± 0.004 | 0.032 | 0.15 ± 0.01 | 0.16 | IC50 ([6]; LV50, Drep-14, Empa-12; intramacrophage, 72 h; read-out: Amastigotes IC50, span over the three strains): 0.03 to 0.05 µg/mL (≈ 0.0325 to 0.0541 µM)
CNC[C@H](O)c1cccc(O)c1 [Phenylephrine] | dose-dependent decrease of parasite viability | > 4.96 | 40.2 ± 3.15 | 241 ± 113 | > 200 | > 1200 | no significant cytotoxicity | > 200 | > 1200 | > 200 | > 1200 | > 2.99 | 66.8 ± 7.28 | 400 ± 260 | > 200 | > 5.68 | 35.2 ± 4.86 | 211 ± 174 | > 200 | > 1200 | viability at 72 h, 200 µg/mL ([3]; read-out: Macrophage viability): 90 to 100%; IC50 ([5]; Empa-12, extrapolated beyond tested range (200 µg/mL), GraphPad, read-out: Promastigotes IC50 estimated through extrapolation): 266 ± 79.5 µg/mL; IC50 ([7]; read-out: Promastigotes IC50 estimated through extrapolation): 275 ± 36.6 µg/mL; IC50 ([10]; LV50, extrapolated beyond tested range (200 µg/mL), GraphPad, read-out: Promastigotes IC50 estimated through extrapolation): 219 ± 25.5 µg/mL
